Source: publication PMC5829263, “Homoarginine and inhibition of human arginase activity: kinetic characterization and biological relevance” (Scientific Reports, 2018)
Entries after “also recorded” stand apart in the source; their conditions may differ. Where a name gives a salt, the structure may show the parent alone. Read-outs that look alike come from different tables or passages of the source.

Assays:
[1] = molecular target: T1, recombinant human arginase 1 (Homo sapiens, UniProt P05089); test: Arginase 1 inhibition, UPLC-MS measurement of ARG to ORN conversion in HEK293T cell lysate; details: for % of control activity at the corresponding [Inhibitor] ± SE: arginase 1; for % of control activity at the corresponding [Inhibitor] ± SE / remaining activity at 1 µM / remaining activity at 10 µM / remaining activity at 100 µM / remaining activity at 1000 µM / remaining activity at 10000 µM / remaining activity at 0.1 µM: mean of two experiments; for arginase 1 inhibitor assessment in words: at the concentrations tested, both ARG concentrations; for remaining activity at 1 µM / remaining activity at 10 µM / remaining activity at 100 µM / remaining activity at 1000 µM / remaining activity at 10000 µM / remaining activity at 0.1 µM: read-out: % of control activity at the corresponding [Inhibitor] ± SE, arginase 1; for remaining activity at 10000 µM: inhibitor 10,000 µM;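 as to all read-outs here: arginase 1–expressing HEK293T lysate at 0.05 mg/mL in pH 7.4 phosphate buffer, inhibitor preincubated 5 min with enzyme, then reaction started by adding ARG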
T1 sequence (P05089 1-322): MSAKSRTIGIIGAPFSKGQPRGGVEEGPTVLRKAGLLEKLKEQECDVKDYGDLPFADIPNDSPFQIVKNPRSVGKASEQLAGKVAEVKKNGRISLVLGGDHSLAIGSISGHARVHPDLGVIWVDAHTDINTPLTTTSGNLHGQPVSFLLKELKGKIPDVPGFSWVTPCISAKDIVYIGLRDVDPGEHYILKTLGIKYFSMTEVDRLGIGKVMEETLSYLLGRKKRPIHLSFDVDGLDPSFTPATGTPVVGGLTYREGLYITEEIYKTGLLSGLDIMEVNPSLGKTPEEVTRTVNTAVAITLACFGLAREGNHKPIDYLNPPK
Experimental: (§1) Following a 5-min pre-equilibration period reactions were initiated by the addition of the cell lysate solution in 0.05 M phosphate buffer to a pre-equilibrated aqueous solution of the substrate (ARG).
(§2) The samples were vortex mixed (20 sec) and cooled in an ice/water bath for 10 min prior to centrifugation (5 min, 18,000 × g, room temperature) to precipitate the proteins. An aliquot of the supernatant layer was diluted with a 7:3 mobile phase A/mobile phase B solution into glass UPLC vial inserts.
(§3) Incubation mixtures comprised of HEK293T cell lysate expressing arginase 1 (0.05 mg/mL) or arginase 2 (0.1 mg/mL), phosphate buffer (0.05 M, pH 7.4), inhibitor (0, 0.1, 1, 10, 100, 1000 or 10000 μM) and ARG (0.1, 2 or 3 mM). Following a 5-min pre-incubation of the potential inhibitor with arginase 1 or arginase 2, reactions were initiated by the addition of a pre-equilibrated solution of the substrate ARG.
Ki values were derived from fitting the competitive inhibition equation to experimental data. Ki data are the mean of three singlicate experiments.

[2] = molecular target: T2, recombinant human arginase 2 (Homo sapiens, UniProt P78540); test: Arginase 2 inhibition, UPLC-MS measurement of ARG to ORN conversion in HEK293T cell lysate; details: for % of control activity at the corresponding [Inhibitor] ± SE: arginase 2; for % of control activity at the corresponding [Inhibitor] ± SE / remaining activity at 1 µM / remaining activity at 10 µM / remaining activity at 100 µM / remaining activity at 1000 µM / remaining activity at 10000 µM / remaining activity at 0.1 µM: mean of two experiments; for arginase 2 inhibitor assessment in words: at the concentrations tested; for remaining activity at 1 µM / remaining activity at 10 µM / remaining activity at 100 µM / remaining activity at 1000 µM / remaining activity at 10000 µM / remaining activity at 0.1 µM: read-out: % of control activity at the corresponding [Inhibitor] ± SE, arginase 2; for remaining activity at 10000 µM: inhibitor 10,000 µM;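 as to all read-outs here: HEK293T lysate carrying arginase 2 at 0.1 mg/mL in 0.05 M phosphate buffer pH 7.4, inhibitor preincubated with enzyme 5 min before ARG addition started the reaction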
T2 sequence (P78540 23-354): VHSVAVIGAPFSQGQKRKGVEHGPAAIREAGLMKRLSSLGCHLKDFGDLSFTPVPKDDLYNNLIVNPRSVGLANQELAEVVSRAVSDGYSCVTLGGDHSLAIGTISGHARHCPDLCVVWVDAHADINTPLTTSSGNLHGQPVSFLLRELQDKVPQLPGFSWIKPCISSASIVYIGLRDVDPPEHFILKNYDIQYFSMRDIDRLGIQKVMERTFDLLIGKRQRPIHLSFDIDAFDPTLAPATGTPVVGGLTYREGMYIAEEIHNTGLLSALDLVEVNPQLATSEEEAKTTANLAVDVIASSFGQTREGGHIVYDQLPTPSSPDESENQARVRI
Experimental: as §1, §2, §3
Sample were diluted 3:17 in mobile phase solution prior injection.

[3] = molecular target: T1, recombinant human arginase 1; test: Arginase 1 activity assay, kinetics of ARG conversion to ORN; format: biochemical; details: absence vs 0.5 mM manganese chloride
Experimental: Incubation mixtures contained HEK293T cell lysate expressing recombinant human arginase 1 (0.05 mg/mL) or arginase 2 (0.1 mg/mL), phosphate buffer (0.05 M, pH 7.4) and ARG (0 to 15 mM).
as §1, §2
Kinetic data are the mean of three singlicate experiments.

Row | SMILES | % of control activity at the corresponding [Inhibitor] ± SE ([1]; ARG 100 µM, inhibitor 0.1 µM) | % of control activity at the corresponding [Inhibitor] ± SE ([1]; ARG 100 µM, inhibitor 1 µM) | arginase 1 inhibitor assessment in words [1] | arginase 2 inhibitor assessment in words [2] | remaining activity at 1 µM ([1]; ARG 100 µM, inhibitor 1 µM) | remaining activity at 10 µM ([1]; ARG 100 µM, inhibitor 10 µM) | remaining activity at 100 µM ([1]; ARG 100 µM, inhibitor 100 µM) | remaining activity at 1000 µM ([1]; ARG 100 µM, inhibitor 1,000 µM) | remaining activity at 1 µM ([1]; ARG 3 mM, inhibitor 1 µM) | remaining activity at 10 µM ([1]; ARG 3 mM, inhibitor 10 µM) | remaining activity at 100 µM ([1]; ARG 3 mM, inhibitor 100 µM) | remaining activity at 1000 µM ([1]; ARG 3 mM, inhibitor 1,000 µM) | remaining activity at 1 µM ([2]; ARG 100 µM, inhibitor 1 µM) | remaining activity at 10 µM ([2]; ARG 100 µM, inhibitor 10 µM) | remaining activity at 100 µM ([2]; ARG 100 µM, inhibitor 100 µM) | remaining activity at 1000 µM ([2]; ARG 100 µM, inhibitor 1,000 µM) | remaining activity at 1 µM ([2]; ARG 2 mM, inhibitor 1 µM) | remaining activity at 10 µM ([2]; ARG 2 mM, inhibitor 10 µM) | remaining activity at 100 µM ([2]; ARG 2 mM, inhibitor 100 µM) | remaining activity at 1000 µM ([2]; ARG 2 mM, inhibitor 1,000 µM) | other results
1 | CN(C)C(N)=NCCC[C@H](N)C(=O)O [ADMA, asymmetric dimethylarginine] | 102 ± 9% | 109 ± 4% | poor arginase 1 inhibitors | poor arginase inhibitors | – | – | – | – | – | – | – | – | – | – | – | – | – | – | – | – | % of control activity at the corresponding [Inhibitor] ± SE ([1]; ARG 100 µM, inhibitor 10 µM): 120 ± 12%; % of control activity at the corresponding [Inhibitor] ± SE ([1]; ARG 100 µM, inhibitor 100 µM): 109 ± 8%; % of control activity at the corresponding [Inhibitor] ± SE ([1]; ARG 100 µM, inhibitor 1,000 µM): 87 ± 1%; % of control activity at the corresponding [Inhibitor] ± SE ([1]; ARG 3 mM, inhibitor 0.1 µM): 98 ± 7%; % of control activity at the corresponding [Inhibitor] ± SE ([1]; ARG 3 mM, inhibitor 1 µM): 89 ± 2%; % of control activity at the corresponding [Inhibitor] ± SE ([1]; ARG 3 mM, inhibitor 10 µM): 90 ± 1%; % of control activity at the corresponding [Inhibitor] ± SE ([1]; ARG 3 mM, inhibitor 100 µM): 86 ± 4%; % of control activity at the corresponding [Inhibitor] ± SE ([1]; ARG 3 mM, inhibitor 1,000 µM): 69 ± 4%; % of control activity at the corresponding [Inhibitor] ± SE ([2]; ARG 100 µM, inhibitor 0.1 µM): 115 ± 7%; % of control activity at the corresponding [Inhibitor] ± SE ([2]; ARG 100 µM, inhibitor 1 µM): 112 ± 13%; % of control activity at the corresponding [Inhibitor] ± SE ([2]; ARG 100 µM, inhibitor 10 µM): 109 ± 9%; % of control activity at the corresponding [Inhibitor] ± SE ([2]; ARG 100 µM, inhibitor 100 µM): 94 ± 14%; % of control activity at the corresponding [Inhibitor] ± SE ([2]; ARG 100 µM, inhibitor 1,000 µM): 104 ± 3%; % of control activity at the corresponding [Inhibitor] ± SE ([2]; ARG 2 mM, inhibitor 0.1 µM): 80 ± 7%; % of control activity at the corresponding [Inhibitor] ± SE ([2]; ARG 2 mM, inhibitor 1 µM): 84 ± 12%; % of control activity at the corresponding [Inhibitor] ± SE ([2]; ARG 2 mM, inhibitor 10 µM): 92 ± 12%; % of control activity at the corresponding [Inhibitor] ± SE ([2]; ARG 2 mM, inhibitor 100 µM): 90 ± 14%; % of control activity at the corresponding [Inhibitor] ± SE ([2]; ARG 2 mM, inhibitor 1,000 µM): 87 ± 15%
2 | NCCCCN=C(N)N [AG, agmatine] | – | – | poor arginase 1 inhibitors; also recorded: no significant inhibition | poor inhibitors; also recorded: no significant inhibition | 94 ± 7% | 82 ± 5% | 110 ± 24% | 84 ± 8% | 84 ± 13% | 100 ± 3% | 100 ± 8% | 98 ± 13% | 103 ± 4% | 98 ± 7% | 92 ± 6% | 78 ± 5% | 104 ± 4% | 96 ± 3% | 103 ± 3% | 96 ± 3% | remaining activity at 10000 µM ([1]; ARG 100 µM): 72 ± 3%; remaining activity at 10000 µM ([1]; ARG 3 mM): 78 ± 7%; remaining activity at 10000 µM ([2]; ARG 100 µM): 58 ± 1%; remaining activity at 10000 µM ([2]; ARG 2 mM): 87 ± 8%
3 | [H]/N=C(/NC)NCCC[C@H](N)C(=O)O [L-NMMA, NG-Monomethyl-L-arginine] | – | – | – | – | 91 ± 6% | 104 ± 11% | 95 ± 6% | 116 ± 1% | 107 ± 11% | 95 ± 9% | 94 ± 8% | 97 ± 11% | 103 ± 2% | 106 ± 1% | 106 ± 9% | 111 ± 4% | 105 ± 4% | 109 ± 8% | 104 ± 3% | 118 ± 4% | remaining activity at 0.1 µM ([1]; ARG 100 µM, inhibitor 0.1 µM): 95 ± 2%; remaining activity at 0.1 µM ([1]; ARG 3 mM, inhibitor 0.1 µM): 106 ± 15%; remaining activity at 0.1 µM ([2]; ARG 100 µM, inhibitor 0.1 µM): 101 ± 1%; remaining activity at 0.1 µM ([2]; ARG 2 mM, inhibitor 0.1 µM): 96 ± 7%
4 | O=C(O)[C@@H]1CCCN1 [PRO, proline] | – | – | poor arginase 1 inhibitors; also recorded: no significant inhibition | poor inhibitors; also recorded: no significant inhibition | 115 ± 1% | 110 ± 1% | 110 ± 6% | 104 ± 3% | 100 ± 1% | 113 ± 26% | 106 ± 19% | 100 ± 17% | 92 ± 10% | 99 ± 1% | 99 ± 2% | 92 ± 7% | 98 ± 1% | 97 ± 7% | 96 ± 12% | 98 ± 10% | remaining activity at 10000 µM ([1]; ARG 100 µM): 54 ± 7%; remaining activity at 10000 µM ([1]; ARG 3 mM): 79 ± 20%; remaining activity at 10000 µM ([2]; ARG 100 µM): 77 ± 16%; remaining activity at 10000 µM ([2]; ARG 2 mM): 75 ± 8%
5 | CN=C(NC)NCCC[C@H](N)C(=O)O [SDMA, NG, N′G-dimethyl-L-arginine dihydrochloride] | 96 ± 3% | 113 ± 22% | poor arginase 1 inhibitors | poor arginase inhibitors | – | – | – | – | – | – | – | – | – | – | – | – | – | – | – | – | % of control activity at the corresponding [Inhibitor] ± SE ([1]; ARG 100 µM, inhibitor 10 µM): 104 ± 4%; % of control activity at the corresponding [Inhibitor] ± SE ([1]; ARG 100 µM, inhibitor 100 µM): 106 ± 17%; % of control activity at the corresponding [Inhibitor] ± SE ([1]; ARG 100 µM, inhibitor 1,000 µM): 69 ± 10%; % of control activity at the corresponding [Inhibitor] ± SE ([1]; ARG 3 mM, inhibitor 0.1 µM): 113 ± 16%; % of control activity at the corresponding [Inhibitor] ± SE ([1]; ARG 3 mM, inhibitor 1 µM): 93 ± 5%; % of control activity at the corresponding [Inhibitor] ± SE ([1]; ARG 3 mM, inhibitor 10 µM): 92 ± 2%; % of control activity at the corresponding [Inhibitor] ± SE ([1]; ARG 3 mM, inhibitor 100 µM): 84 ± 1%; % of control activity at the corresponding [Inhibitor] ± SE ([1]; ARG 3 mM, inhibitor 1,000 µM): 73 ± 5%; % of control activity at the corresponding [Inhibitor] ± SE ([2]; ARG 100 µM, inhibitor 0.1 µM): 90 ± 2%; % of control activity at the corresponding [Inhibitor] ± SE ([2]; ARG 100 µM, inhibitor 1 µM): 96 ± 1%; % of control activity at the corresponding [Inhibitor] ± SE ([2]; ARG 100 µM, inhibitor 10 µM): 95 ± 3%; % of control activity at the corresponding [Inhibitor] ± SE ([2]; ARG 100 µM, inhibitor 100 µM): 90 ± 1%; % of control activity at the corresponding [Inhibitor] ± SE ([2]; ARG 100 µM, inhibitor 1,000 µM): 89 ± 1%; % of control activity at the corresponding [Inhibitor] ± SE ([2]; ARG 2 mM, inhibitor 0.1 µM): 96 ± 2%; % of control activity at the corresponding [Inhibitor] ± SE ([2]; ARG 2 mM, inhibitor 1 µM): 100 ± 3%; % of control activity at the corresponding [Inhibitor] ± SE ([2]; ARG 2 mM, inhibitor 10 µM): 107 ± 1%; % of control activity at the corresponding [Inhibitor] ± SE ([2]; ARG 2 mM, inhibitor 100 µM): 102 ± 1%; % of control activity at the corresponding [Inhibitor] ± SE ([2]; ARG 2 mM, inhibitor 1,000 µM): 96 ± 1%
6 | [Cl][Mn][Cl] [manganese chloride] | – | – | – | – | – | – | – | – | – | – | – | – | – | – | – | – | – | – | – | – | rate of ORN formation higher in absence of manganese supplementation [3]: 20%
